Source: PMC5991783, “Discovery and Optimization of Indolyl-Containing 4-Hydroxy-2-Pyridone Type II DNA Topoisomerase Inhibitors Active against Multidrug Resistant Gram-negative Bacteria” (Journal of Medicinal Chemistry, 2018)

What was measured:
[1] = system: E. coli ATCC 25922; assay: MIC, wild-type E. coli ATCC 25922; assay type: cell-based, Escherichia coli; conditions: Escherichia coli, ATCC25922; E. coli ATCC 25922; read-out: MIC E. coli^WT
[2] = system: A. baumannii MMX2240; assay: MIC, fluoroquinolone resistant A. baumannii; assay type: cell-based, Acinetobacter baumannii; conditions: Acinetobacter baumannii
[3] = system: E. coli ELZ4251; assay: MIC, clinical isolate E. coli ELZ4251; assay type: cell-based; conditions: Escherichia coli, read-out: MIC E. coli^R2
[4] = molecular target: E. coli DNA gyrase (Escherichia coli, UniProt P0AES4+P0AES6); assay: biochemical; conditions: E. coli DNA gyrase IC50
Chain of E. coli DNA gyrase (P0AES4 whole entry, one chain of several): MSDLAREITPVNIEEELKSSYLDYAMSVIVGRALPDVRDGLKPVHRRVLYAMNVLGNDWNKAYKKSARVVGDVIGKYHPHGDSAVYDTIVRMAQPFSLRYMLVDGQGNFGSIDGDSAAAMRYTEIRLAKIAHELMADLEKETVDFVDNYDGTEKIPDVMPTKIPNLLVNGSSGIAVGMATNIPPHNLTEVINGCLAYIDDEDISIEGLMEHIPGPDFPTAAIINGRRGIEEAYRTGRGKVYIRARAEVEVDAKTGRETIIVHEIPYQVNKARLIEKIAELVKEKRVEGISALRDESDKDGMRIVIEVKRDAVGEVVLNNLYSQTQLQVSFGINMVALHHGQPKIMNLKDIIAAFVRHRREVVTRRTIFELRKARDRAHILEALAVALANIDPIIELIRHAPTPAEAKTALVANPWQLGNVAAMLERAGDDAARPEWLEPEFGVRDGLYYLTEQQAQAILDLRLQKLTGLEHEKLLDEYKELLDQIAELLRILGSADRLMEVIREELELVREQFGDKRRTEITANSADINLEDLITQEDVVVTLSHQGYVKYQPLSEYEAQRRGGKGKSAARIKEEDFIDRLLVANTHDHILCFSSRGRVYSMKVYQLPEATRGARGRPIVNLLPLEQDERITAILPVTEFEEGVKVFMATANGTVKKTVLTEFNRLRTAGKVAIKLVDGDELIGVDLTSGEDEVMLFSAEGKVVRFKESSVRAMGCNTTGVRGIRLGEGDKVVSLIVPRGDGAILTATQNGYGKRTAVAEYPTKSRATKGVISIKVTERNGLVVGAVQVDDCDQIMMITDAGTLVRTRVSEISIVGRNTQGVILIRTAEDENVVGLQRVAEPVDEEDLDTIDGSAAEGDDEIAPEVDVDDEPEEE

[5] = system: Klebsiella pneumoniae ATCC 35657; assay: MIC, wild-type K. pneumoniae; assay type: cell-based; conditions: Klebsiella pneumoniae, ATCC35657; K. pneumoniae ATCC 35657; read-out: MIC K. pneu^WT
[6] = system: E. coli SKM18; assay: microbe, parasite or virus in culture; assay type: cell-based, Escherichia coli; conditions: Escherichia coli, SKM18, read-out: MIC E. coli^R1, E. coli SKM18
[7] = system: panel of 12 A. baumannii isolates; assay: Susceptibility testing, 12 A. baumannii isolates; assay type: cell-based, Acinetobacter baumannii; conditions: 12 strains
[8] = molecular target: human topoisomerase II (Homo sapiens, UniProt P11388); assay: Human topoisomerase II decatenation assay; assay type: biochemical; conditions: Supplemental Table 1; read-out: Human Topo II IC50
Chain of human topoisomerase II (P11388 whole entry): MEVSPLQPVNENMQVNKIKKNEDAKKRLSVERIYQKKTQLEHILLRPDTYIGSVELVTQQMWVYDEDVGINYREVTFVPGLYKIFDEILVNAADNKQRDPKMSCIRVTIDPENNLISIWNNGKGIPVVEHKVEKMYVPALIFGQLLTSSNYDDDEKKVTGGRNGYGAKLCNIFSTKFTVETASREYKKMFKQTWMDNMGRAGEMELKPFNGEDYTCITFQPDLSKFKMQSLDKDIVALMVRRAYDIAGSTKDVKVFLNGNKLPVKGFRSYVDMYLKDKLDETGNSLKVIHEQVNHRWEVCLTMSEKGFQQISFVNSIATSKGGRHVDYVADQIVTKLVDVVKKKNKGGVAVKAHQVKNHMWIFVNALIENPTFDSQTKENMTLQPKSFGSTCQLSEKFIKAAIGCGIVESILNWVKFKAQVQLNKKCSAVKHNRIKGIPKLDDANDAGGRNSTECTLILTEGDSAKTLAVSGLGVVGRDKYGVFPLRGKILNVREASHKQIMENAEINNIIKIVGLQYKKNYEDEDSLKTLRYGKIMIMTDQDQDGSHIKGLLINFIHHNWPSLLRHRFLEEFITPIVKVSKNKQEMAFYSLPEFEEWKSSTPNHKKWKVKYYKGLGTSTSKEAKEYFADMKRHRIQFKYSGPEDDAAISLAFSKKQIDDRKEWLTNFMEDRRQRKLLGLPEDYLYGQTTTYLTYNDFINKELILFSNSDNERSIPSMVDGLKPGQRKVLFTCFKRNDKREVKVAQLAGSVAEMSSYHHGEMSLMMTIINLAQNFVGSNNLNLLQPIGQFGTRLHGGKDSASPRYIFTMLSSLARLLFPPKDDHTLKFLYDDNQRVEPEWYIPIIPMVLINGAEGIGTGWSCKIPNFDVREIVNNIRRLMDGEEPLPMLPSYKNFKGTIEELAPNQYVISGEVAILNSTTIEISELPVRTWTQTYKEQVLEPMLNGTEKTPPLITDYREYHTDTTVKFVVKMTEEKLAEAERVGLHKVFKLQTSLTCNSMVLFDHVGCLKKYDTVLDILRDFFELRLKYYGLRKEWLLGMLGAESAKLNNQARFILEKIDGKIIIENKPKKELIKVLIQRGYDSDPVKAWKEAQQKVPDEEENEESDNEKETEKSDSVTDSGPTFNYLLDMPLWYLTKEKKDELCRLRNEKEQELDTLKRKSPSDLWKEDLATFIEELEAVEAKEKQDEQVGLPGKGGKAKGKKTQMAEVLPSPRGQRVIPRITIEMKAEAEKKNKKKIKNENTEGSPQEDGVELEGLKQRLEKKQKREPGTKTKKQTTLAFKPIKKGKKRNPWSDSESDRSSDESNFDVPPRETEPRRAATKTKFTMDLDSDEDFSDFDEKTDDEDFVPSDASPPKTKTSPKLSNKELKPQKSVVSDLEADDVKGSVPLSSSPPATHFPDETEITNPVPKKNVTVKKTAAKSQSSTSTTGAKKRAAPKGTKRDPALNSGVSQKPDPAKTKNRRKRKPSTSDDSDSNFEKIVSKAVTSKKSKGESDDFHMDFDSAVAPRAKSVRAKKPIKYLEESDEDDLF

[9] = system: E. coli^WT (ATCC 25922); assay: Mouse septicemia model; assay type: in vivo, CD-1 mice; conditions: Mus musculus, iv, 96 h; read-out: survival
[10] = system: Acinetobacter baumannii ATCC BAA-747; assay: MIC, wild-type A. baumannii; assay type: cell-based; conditions: Acinetobacter baumannii, ATCCBAA747; A. baumannii ATCC BAA-747; read-out: MIC A. bau^WT
[11] = system: panel of 12 E. coli isolates; assay: Susceptibility testing, 12 E. coli isolates; assay type: cell-based, Escherichia coli; conditions: 12 strains
[12] = Mouse plasma protein binding, equilibrium dialysis
[13] = Pharmacokinetics in CD-1 mice; conditions: CD-1, mouse, plasma

Compound: CCC(C)NCc1cc2cc3c(cc2n1C)OCCc1c-3[nH]c(=O)c(C(=O)O)c1O.Cl (stereo not drawn) [Compound 6o, 10-((sec-Butylamino)methyl)-4-hydroxy-9-methyl-2-oxo-2,5,6,9-tetrahydro-1H-pyrido[2′,3′:4,5]oxepino[3,2-f]indole-3-carboxylic Acid Hydrochloride]
- MIC [1]: 0.78 µg/mL
- MIC [2]: 0.78 µg/mL
- MIC [3]: 2 µg/mL
- IC50 [4]: 110 nM
- MIC [5]: 1 µg/mL
- MIC [6]: 0.78 µg/mL
- A. baumannii MIC90 ([7]; Mueller Hinton II broth): 8 µg/mL
- MIC90 ([7]; Acinetobacter baumannii, Mueller Hinton II broth, read-out: A. baumannii MIC90): 8 to 16 µg/mL
- MIC50 ([7]; Acinetobacter baumannii): 2 µg/mL
- IC50 [8]: > 100000 nM
- responders at 20 mg/kg [9]: 100%
- MIC [10]: 1.6 µg/mL
- E. coli MIC90 ([11]; Mueller Hinton II broth): 1 µg/mL
- MIC90 ([11]; Escherichia coli, Mueller Hinton II broth, read-out: E. coli MIC90): 0.5 to 1 µg/mL
- MIC50 ([11]; Escherichia coli): 1 µg/mL
- MIC ([11]; Escherichia coli, read-out: E. coli MIC range): 0.12 to 1 µg/mL
- fraction unbound at 1 μM [12]: 0.23
- AUC(0-t) ([13]; iv, 10 mg/kg, pH 8): 3440 ng·h/mL
- clearance ([13]; iv, 10 mg/kg, pH 8): 48 mL/min/kg
- half-life ([13]; iv, 10 mg/kg, pH 8): 2.1 h
- bioavailability ([13]; po): 41%
